The values below come from PMC5041982, “Small-molecule inhibition of STAT3 in radioresistant head and neck squamous cell carcinoma” (Oncotarget, 2016).

≈ marks a conversion by molar mass, not a printed value. Like-named read-outs stand apart in the source and are kept apart here.

The target of one series is T1, pSTAT1 (Tyr-701) (Homo sapiens, UniProt P42224).
T1 construct: endogenous in cells; host or cells: Kasumi-1
T1 sequence (P42224 1-750): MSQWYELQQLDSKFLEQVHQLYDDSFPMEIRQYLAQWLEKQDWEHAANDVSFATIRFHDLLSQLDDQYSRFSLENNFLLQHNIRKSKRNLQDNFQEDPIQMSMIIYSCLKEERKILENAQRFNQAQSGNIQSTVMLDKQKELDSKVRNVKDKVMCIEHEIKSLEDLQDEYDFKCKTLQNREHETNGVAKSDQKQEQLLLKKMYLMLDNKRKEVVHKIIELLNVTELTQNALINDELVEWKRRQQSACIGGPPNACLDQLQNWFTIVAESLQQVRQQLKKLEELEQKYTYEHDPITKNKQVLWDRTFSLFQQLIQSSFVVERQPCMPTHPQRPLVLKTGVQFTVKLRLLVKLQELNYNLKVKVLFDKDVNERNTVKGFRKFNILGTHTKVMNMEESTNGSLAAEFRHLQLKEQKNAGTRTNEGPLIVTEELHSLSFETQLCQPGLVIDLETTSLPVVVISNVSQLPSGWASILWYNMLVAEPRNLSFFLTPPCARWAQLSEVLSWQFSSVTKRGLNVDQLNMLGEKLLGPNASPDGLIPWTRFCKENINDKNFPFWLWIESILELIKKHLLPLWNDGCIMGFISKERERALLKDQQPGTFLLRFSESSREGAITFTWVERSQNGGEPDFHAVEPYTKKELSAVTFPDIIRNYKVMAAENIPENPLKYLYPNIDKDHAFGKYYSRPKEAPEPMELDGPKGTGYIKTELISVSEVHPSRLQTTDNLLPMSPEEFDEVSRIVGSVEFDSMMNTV
Nature of the series: Luminex bead-based assay, G-CSF-induced pSTAT1 in Kasumi-1 cells. Type of series: cell-based. How it is done: The equilibrium binding levels obtained ± compound were normalized (resonance obtained in the presence of compound ÷ the resonance obtained in the absence of compound × 100) and plotted against Log [nM] […] B. Inhibition of ligand-stimulated STAT phosphorylation, measured by phosphoflow. Serum-starved (1 hour) Kasumi-1 cells, pre-incubated with compound/DMSO (1 hour), were treated with G-CSF (10 ng/ml, 15 min, left two panels) or IFN-γ (10ng/ml, 15 min, right panel). Cells were permeabilized and stained with Alexa647-pSTAT3, and PE-pSTAT1 antibodies and analyzed on BD LSR2. FCS files were uploaded to Cytobank for pSTAT3 and pSTAT1 quantitation. Histograms depicting pSTAT3 and pSTAT1 levels are shown. C. Mean fluorescence (pSTAT3/1) levels were plotted as function the Log [M] compound, and IC50 calculated using GraphPad. […] D. Inhibition of ligand-stimulated STAT phosphorylation, measured by Luminex. Serum-starved (1 hour) Kasumi-1 cells, pre-incubated with compound/DMSO (0/0.1/0.3/1/3/10/100 μM, 1 hour), were treated with G-CSF (10 ng/ml, 15′). Total protein extracts of cells were assayed for pSTAT3, pSTAT1, and GAPDH levels by Luminex. […] These values were plotted as a function of Log [M] compound, and IC50 values calculated using GraphPad. […]
for analysis as described below. were determined by plotting % maximum response as a 3-D pharmacophore generation function of log concentration of compound and fitting the Each molecular chemical feature, including experimental points to a competitive binding model using hydrogen bond donor, hydrogen bond acceptor, positive a four parameter logistic equation: R = Rhigh − (Rhigh − R low)/ (1 + conc/A1)^A2, where R = percent response at and negative ionizable group, and hydrophobic region, inhibitor concentration, R = percent response with no was generated using the LigandScout application compound, R= percent response at highest compound high framework and projected into 3-D space. concentration, A2 = fitting parameter (slope) and A1 = low Feature-pairing IC50 (BIAevaluation Software version 4.1). […]

The nature of a further series: Solubility in PBS. To be noted: 60 min at 37°C in PBS, pH 7.4. It is filed as physicochemical.

A word on the IC50: it is the midpoint of a concentration-inhibition curve. For orientation: solubility means the dissolved amount per volume that the medium holds. A lower solubility goes with little dissolved substance. `COc1ccc(S(=O)(=O)Nc2cc(-c3c(O)ccc4ccccc34)c(O)c3ccccc23)cc1` [Compound C188-9]: the concentration for half-maximal inhibition (IC50) was determined as 3 µM at pSTAT1 (Tyr-701) (Figure 2D, Kasumi-1, G-CSF, read-out: Luminex pSTAT1 (Tyr-701) IC50, representative experiment) and 4.1 ± 3.3 µM at pSTAT1 (Tyr-701) (Kasumi-1, mean, n ≥ 2, read-out: G-CSF Induced Phosphorylation (Luminex) pSTAT1 IC50). In “Solubility in PBS”, this molecule had a solubility at 60 min of 13.1 µM (≈ 6.18 µg/mL).
